Source: patent US9802996B2, “Glycosylated polypeptide and drug composition containing said polypeptide” (Glytech, Inc., priority 2011, dated 2017)

Tests used:
[1] = test system: rat gastrointestinal obstruction model; assay: Gastrointestinal obstruction model: blood parameters (amylase, LDH, CPK); format: in vivo, rats; conditions: for LDH activity compared to the vehicle / amylase activity compared to the vehicle: rats, blood 1 hour after administration; for Amylase / CPK / LDH: rat gastrointestinal obstruction model, blood collected 1 hour after subcutaneous administration of 40 μM solution at 1 mL/kg, 18 hours after surgery
Procedure: This experimental line was carried out as a test line to evaluate the promotion of intestinal fluid absorption or the secretory suppressing action, using the change in the intestinal fluid weight in the jejunum after bowel obstruction as an indicator. Moreover, blood parameters of deviation enzymes amylase (pancreas), lactate dehydrogenase (LDH, liver), and creatine phosphokinase (CPK, skeletal muscle, cardiac muscle etc.) were measured as indicators of tissue disorders.
The present test was consigned to Mitsubishi Chemical Medience Corporation and carried out. […] Anesthesia was introduced with inhalation of 2% isoflurane and laughing gas:oxygen=7:3, and this was maintained throughout the surgery. A median incision was made in the abdomen, and the jejunum at about 10 cm from the musculus suspensorius duodeni was ligated with a surgical suture. Then, the incision site was promptly sutured, and the rats were fasted until compound administration. In the sham treatment group, ligation of the jejunum was not performed, but the treatment of suturing the incision site after a median incision was made in the abdomen was performed.
(§1) Eighteen hours after the gastrointestinal obstruction surgery, this was subcutaneously administered into the dorsal cervix at a dosage of 1 mL/kg with a glass syringe and a 25 G injection needle (all from Terumo Corporation). As the vehicle group, saline without glycosylated polypeptide was similarly administered.
One hour after compound administration, a median incision was made in the abdomen under inhalation anesthesia, and 1.5 mL of blood was collected from the abdominal vena cava.
The measuring methods employed were BG5B, UV-rate, and JSCC methods, respectively.

[2] = test system: rat gastrointestinal obstruction model; assay: Drug effect test in gastrointestinal obstruction model: intestinal fluid weight; format: in vivo, rats; conditions: for intestinal fluid weight compared to the vehicle: rats, subcutaneous 40 nmol/kg, 1 hour after administration; for Intestinal fluid weight: jejunum wet weight-dry weight, 40 μM solution 1 mL/kg subcutaneous 18 h after surgery, one hour after administration
Source text: Anesthesia was introduced with inhalation of 2% isoflurane and laughing gas:oxygen=7:3, and this was maintained throughout the surgery. A median incision was made in the abdomen, and the jejunum at about 10 cm from the musculus suspensorius duodeni was ligated with a surgical suture. Then, the incision site was promptly sutured, and the rats were fasted until compound administration. In the sham treatment group, ligation of the jejunum was not performed, but the treatment of suturing the incision site after a median incision was made in the abdomen was performed.
as §1
One hour after compound administration, a median incision was made in the abdomen under inhalation anesthesia, and 1.5 mL of blood was collected from the abdominal vena cava. Then, the ligated jejunum on the musculus suspensorius duodeni side was resected. The fluid and blood on the jejunum surface were removed with a paper towel, nerves, blood vessels, and fat attached to the jejunum was removed, this was cut into 6 cm lengths, and wet weight was measured. This was then dried at 36 degrees for 24 hours, and dry weight was measured. The intestinal fluid weight (mg) was calculated by wet weight-dry weight.

[3] = test system: growth hormone (GH) production; assay: GH production suppression test with rats; format: in vivo; conditions: for GH production suppression activity: administration of 10 or 100 nmol/kg;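 on all read-outs here: plasma GH measured by EIA in blood drawn 5 min after intravenous GRF stimulus, given 1 h after compound dosing, compared against saline-treated vehicle rats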
Procedure: This experimental line was carried out as a test line that can evaluate the pharmacological action of the glycosylated form on SSTR and its residence in blood after administration, with blood GH production amount as an indicator.
Moreover, GRF (GH releasing hormone, Growth hormone releasing factor) was used as the GH release enhancer. […] As heparin employed as the anticoagulant when collecting blood, Japanese Pharmacopeia heparin sodium injectable solution (Lot. B084, from Mochida Pharmaceutical Co., Ltd.) was used directly as stock solution.
As the control group, saline without glycosylated polypeptide was similarly administered (vehicle group). […] One hour after administration of the glycosylated form, i.e. after 50 minutes or more had passed under anesthesia, GRF was administered as the GH release enhancer to the tail vain at a dosage of 1 mL/kg with a glass syringe and an injection needle. Five minutes after administration of GRF, blood was collected from the rat cervical vein with a glass syringe containing heparin and an injection needle. 0.4 mL of the collected blood was left on ice for 20 minutes or more, then centrifuged (1,870×g, 4° C., 10 minutes), and 100 μL of the supernatant was taken as the plasma sample. As blank plasma, plasma obtained by similarly treating the blood collected from untreated rat cervical vein was employed. Plasma samples were frozen in storage until employed for measurement.
Measurement of GH concentration in the plasma sample obtained in the above 89-2 was performed with rat Growth Hormone EIA kit from SPI-Bio (SPI-Bio, A05104). The plasma sample was diluted with the assay buffer supplied in the EIA kit to 20, 100, and 500-folds as measurement samples. […] By multiplying the results obtained and the dilution ratio, the GH concentration was calculated.

[4] = Pharmacokinetics test with rats (intravenous and subcutaneous administration)
Procedure: 0.2 mL of the collected blood was promptly mixed with 0.2 mL of the aprotinin-containing EDTA-PBS solution prepared in the above 70-1, and left on ice for 30 minutes or more. […] As blank plasma, plasma obtained by similarly treating the blood collected from untreated rat cervical vein was employed. Plasma samples were frozen in storage until employed for measurement.
The standard solution for creating a standard curve was prepared as follows. First, the blank plasma obtained in the above 70-2 was diluted with the assay buffer supplied in the EIA kit similarly to the plasma sample, and this was used as the assay buffer for standard solution preparation (for example, when diluting the plasma sample to 100-fold, 1/100 amount of blank plasma was added to the assay buffer supplied in the EIA kit, and this was used as the assay buffer for standard solution preparation).
Moreover, the predicted initial concentration (C0) was determined by the extrapolation method for intravenous administration, t1/2 and MRT were calculated, and the maximum plasma concentration (Cmax) was determined from the actual value for subcutaneous administration.
Moreover, the parameters obtained were employed to calculate bioavailability from the following mathematical formula. BA (%)=(AUC(sc)/Dose(sc))/(AUC(iv)/Dose(iv))
AUC(sc): AUC for subcutaneous administration (min·nM)
Dose(sc): Administration dose for subcutaneous administration (nmol/kg)
AUC(iv): AUC for intravenous administration (min·nM)
Dose(iv): Administration dose for intravenous administration (nmol/kg)

SSTR1-SSTR5 = assay: Competitive binding assay, statements over all receptors; parameters: species or system Human; conditions: Example 69-1, range over SSTR1-SSTR5
[5] = Table 7, plasma GH, dose 1 nmol/kg subcutaneous, GRF 1 hour after administration, blood 5 min after GRF
[6] = Table 7, plasma GH, dose 10 nmol/kg subcutaneous, GRF 1 hour after administration, blood 5 min after GRF
[7] = Table 8, plasma GH, dose 1 nmol/kg
[8] = Table 8, plasma GH, dose 10 nmol/kg
[9] = intravenous administration, Table 5A
[10] = subcutaneous administration, Table 5A
[11] = Table 8, plasma GH, dose 3 nmol/kg
[12] = Table 8, plasma GH, dose 30 nmol/kg
[13] = Table 8, plasma GH, dose 100 nmol/kg

C[C@@H](O)[C@@H]1NC(=O)[C@H](CCCCN)NC(=O)[C@@H](Cc2c[nH]c3ccccc23)NC(=O)[C@H](Cc2ccccc2)NC(=O)[C@@H](NC(=O)[C@H](N)Cc2ccccc2)CSSC[C@@H](C(=O)N[C@H](CO)[C@@H](C)O)NC1=O [Octreotide, reference compound]
LDH activity compared to the vehicle [1]: low value compared to the vehicle
amylase activity compared to the vehicle [1]: equivalent to the vehicle
intestinal fluid weight compared to the vehicle [2]: confirmed to have this effect

S1C(disialo)•N5C(disialo)-SRIF28 [Example 21]
GH [3, 5]: 776 ng/mL
GH [3, 6]: 181 ng/mL
GH [3, 7]: 776 ng/mL
GH [3, 8]: 181 ng/mL
GH production suppression activity ([3]; rats): showed GH production suppression activity

S1C(disialo(aminoethylamide))-SRIF28 [Example 59]
GH production suppression effect ([3]; rats, subcutaneous, 10 nmol/kg): 70-99%

R13C(disialo)-SRIF28 [Example 5]
GH production suppression activity ([3]; rats): showed GH production suppression activity

S1-5C(disialo)-SRIF28 [Example 34]
AUC [4, 9]: 6016 ± 873 nM·min
C0 [4, 9]: 752 ± 81.4 nM
MRT [4, 9]: 0.817 ± 0.101 h
t1/2 [4, 9]: 1.66 ± 0.233 h
AUC for subcutaneous administration, folds of S1C(disialo)-SRIF28 ([4]; subcutaneous): 1.8-3.1 folds
AUC [4, 10]: 5524 ± 633 nM·min
Cmax [4, 10]: 13.5 ± 2.85 nM
MRT [4, 10]: 6.48 ± 0.833 h
t1/2 [4, 10]: 4.52 ± 0.645 h
bioavailability (BA) ([4]; subcutaneous vs intravenous AUC): 92%
BA ([4]; subcutaneous vs intravenous administration, Table 5A): 92%
GH [3, 8]: 842 ng/mL
GH production suppression activity ([3]; rats): showed GH production suppression activity

C(disialo)-R-K-SRIF14 [Example 18]
affinity towards SSTR1-SSTR5, folds higher than S1C(disialo)-SRIF28 (SSTR1-SSTR5): 0.7-2.4 folds
Amylase [1]: 985 ± 238 IU/L
CPK [1]: 415 ± 137 IU/L
LDH [1]: 228 ± 155 IU/L
LDH activity compared to the vehicle [1]: low value compared to the vehicle
amylase activity compared to the vehicle [1]: low value compared to the vehicle
GH [3, 7]: 912 ng/mL
GH [3, 11]: 291 ng/mL
GH [3, 12]: 12 ng/mL
GH production suppression effect ([3]; rats, subcutaneous, 10 nmol/kg): 95-99%
Intestinal fluid weight [2]: 584 ± 95 mg
intestinal fluid weight compared to the vehicle [2]: increase in the intestinal fluid weight compared to the vehicle

S1C(disialo)-SRIF28 [Example 1]
Amylase [1]: 1164 ± 224 IU/L
CPK [1]: 455 ± 202 IU/L
LDH [1]: 338 ± 97 IU/L
amylase activity compared to the vehicle [1]: low value compared to the vehicle
GH [3, 5]: 490 ng/mL
GH [3, 6]: 17.1 ng/mL
GH [3, 7]: 787 ng/mL
GH [3, 11]: 182 ng/mL
GH [3, 8]: 15 ng/mL
GH [3, 12]: 8 ng/mL
GH [3, 13]: 7 ng/mL
dose from which GH production was suppressed ([3]; rats, subcutaneous): ≥ 1 nmol/kg
GH production suppression effect ([3]; rats, subcutaneous, 3-10 nmol/kg): 82-99%
Intestinal fluid weight [2]: 630 ± 83 mg
intestinal fluid weight compared to the vehicle [2]: increase in the intestinal fluid weight compared to the vehicle

K14C(disialo)-SRIF28 [Example 6]
GH production suppression activity ([3]; rats): showed GH production suppression activity

S1C(disialo)-D-Trp22-SRIF28 [Example 15]
GH production suppression effect ([3]; rats, subcutaneous, 10 nmol/kg): 95-99%

S1C(disialo(Bn))-SRIF28 [Example 61]
GH production suppression effect ([3]; rats, subcutaneous, 10 nmol/kg): 95-99%

S1C(asialo)-SRIF28 [Example 27]
GH production suppression effect ([3]; rats, subcutaneous, 10 nmol/kg): 70-99%

A9C(disialo)-SRIF28 [Example 3]
GH production suppression effect ([3]; rats, subcutaneous, 10 nmol/kg): 95-99%

S1C(monosialo)-SRIF28 [Example 26]
GH production suppression effect ([3]; rats, subcutaneous, 10 nmol/kg): 70-99%

S1C(disialo)•N5C(disialo)•A9C(disialo)-SRIF28 [Example 25]
GH [3, 6]: 833 ng/mL
GH ([3]; Table 7, plasma GH, dose 100 nmol/kg subcutaneous, GRF 1 hour after administration, blood 5 min after GRF): 151 ng/mL
GH [3, 13]: 151 ng/mL
GH production suppression activity ([3]; rats): showed GH production suppression activity

E12C(disialo)-SRIF28 [Example 4]
GH production suppression effect ([3]; rats, subcutaneous, 10 nmol/kg): 95-99%

N5C(disialo)-SRIF28 [Example 2]
GH production suppression effect ([3]; rats, subcutaneous, 10 nmol/kg): 95-99%

S1C(disialo(amide))-SRIF28 [Example 60]
GH production suppression effect ([3]; rats, subcutaneous, 10 nmol/kg): 70-99%

S1-2C(asialo)-SRIF28 [Example 28]
affinity towards SSTR1-SSTR5, folds higher than S1C(disialo)-SRIF28 (SSTR1-SSTR5): 1.7-2.9 folds
GH production suppression effect ([3]; rats, subcutaneous, 10 nmol/kg): 70-99%
intestinal fluid weight compared to the vehicle [2]: increase in the intestinal fluid weight compared to the vehicle
